Experiment [1] concerns testicular steriodogenosis. Nature of the experiment: Inhibitory activity on testicular steroidogenesis in a patient with prostate cancer. It counts as in vivo, human. The conditions noted are these: 500 μg intranasally twice a day. The source says:
The inhibitory activity of [D Ser (tbu)^6 of des GlyNH2^10 ] […] The results are reported in the graphs of sheet 2 of the Figures.

Experiment [2] has as its system testicular steroidogensis. The experiment can be described thus: Inhibitory activity against testicular steroidogenesis in men in good health, single intranasal dose. Format: in vivo. Here is the method: The inhibitory activity of [D Ser (tbu)^6 of des GlyNH^10 ] LH-RH ethylamide (described in German application Ser. No. 2,438,350) against testicular steroidogensis in men in good health was determined on men in good health aged 30 to 40 years. The said product was administered intranasally at a dose of 500 μg in a few drops of distilled water at 8 A.M. on the third day of the test. For 2 days prior to the treatment and for 6 days after the treatment, samples of blood were taken daily at 8 A.M., 3 P.M. and 10 P.M. On the day of administration of the LH-RH agonist, blood samples were taken at 11 A.M. and 6 P.M.
The seric concentrations of LH and FSH were measured by radioimmuno-logic dosages with double antibodies and the antibodies for measuring LH and FSH were furnished by the National Pituitary Agency of N.I.H. in Bethesda, Md. The seric concentrations of steroids was measured by radio-immuno-logic dosages in which one ml of serum was extracted with ether and the steroids were separated on a LH-20 column before measuring with radioimmuno-logic dosages. The radio-immuno-logic dosage results were determined by a program derived from model II of Rodbard et al [Second Karolinska Symposium on Research Methods in Reproductive Endroerinology Diczfalusky Editor, Copenhague (1970), p. 79-103]. The statistical significance was determined by the "multiple level test" of Duncan-Kramer [Kramer, Biometrics, Vol 12 (1956), p. 307]. The results are shown in the graphs on sheet 1 of the Figures filed herewith.

Experiment [3] deals with ovarian steroidogenosis. Nature of the experiment: Inhibitory activity on ovarian steroidogenesis in women. Format: in vivo. The conditions noted are these: for reduction of seric levels of progesterone compared to the controls: typical levels (sheet 3). As to the method: The inhibitory activity of [D Ser (tbu)^6 of des GlyNH2^10 ] LH-RH ethylamide on ovarian steroidogenosis in women was determined on 6 women aged 26 to 35 years with normal and regular menstrual cycles and without prior endocrinal or gynecological problems. The study was conducted for 6 consecutive cycles consisting of 2 pretreatment cycles, 2 treatment cycles and 2 post-treatment cycles. Two drops of a solution containing 500 μg of [D Ser (tbu)^6 des GlyNH2^10 ] LH-RH ethylamide were deposited on each nostril at 8 A.M. and 5 P.M. of a day between the 4th and 9th day after the peak of LH-day 0. Daily blood samples were taken between 4 and 6 P.M. to measure seric levels of LH, FSH, progesterone and estradiol which were determined by radioimmumo-logictests with double antibodies. The antibodies to measure LH and FSH were furnished by the National Pituitory Agency of N.I.H. of Bethesda, Md.
Estradiol and progesterone were measured with highly specific antibodies developed against 7-(O-carboxymethyl)-oxime of estradiol and 12-(O-carboxymethyl)-oxime of progesterone, respectively [3H] 17β-estradiol and ^125 I-progesterone-12-[O-carboxymethyl)-oxime]used as tracers. The serum was extracted with benzene and the steroids were separated with a LH-20 column before the determination. The radioimmunological results were exploited by the program derived from model II of Rodbard and Lewald as in Example 1 and the statistical significance was measured by the multiple level test of Ducan-Kramer of Example 1. The results are shown in the graphs of sheets 3 to 5 of the Figures.

[4] abbreviates: 3rd day following administration, intranasal 500 μg.
Setting [5] is: after single intranasal dose of 500 μg.

The results in this text go back to US5189021A, “Method of treating precocious puberty” (Roussel Uclaf, priority 1979, dated 1993).

Structures are written as SMILES.

With `CCNC(=O)[C@@H]1CCCN1C(=O)[C@H](CCCNC(=N)N)NC(=O)[C@H](CC(C)C)NC(=O)[C@@H](COC(C)(C)C)NC(=O)[C@H](Cc1ccc(O)cc1)NC(=O)[C@H](CO)NC(=O)[C@H](Cc1c[nH]c2ccccc12)NC(=O)[C@H](Cc1c[nH]cn1)NC(=O)[C@@H]1CCC(=O)N1` [[D Ser (tbu)^6 des GlyNH2^10] LH-RH ethylamide], the “androgenic steroids (plasmatic level)” value in experiment [1] (prostate cancer patient) is on record as “diminution”. Further, the level of testosterone entry in experiment [1] (two weeks of treatment) is given as “stabilized at a very low level”. Further, in experiment [2] (setting [4]), the “concentration of 17-OH-progesterone relative to the initial control values” is given as 40%. In experiment [2] (setting [4]), the “concentration of testosterone relative to the initial control values” stood at 50%. Moreover, the “day on which the steroid level returned to normal” value in experiment [2] (setting [5]) was “fourth day”. For the same molecule, in experiment [2] (setting [5]), the “duration of the drop of seric levels of testicular steroids (testosterone and its precursors)” value was determined as 3 days. Moreover, the “LH and FSH plasmatic levels” value in experiment [2] (intranasal 500 μg) is “increase”. Besides, the “seric concentration of pregnenolone, 17-OH-pregnenolone, progesterone, 17-OH-progesterone, Δ5-androstene-3β,17β-diol and testosterone” value in experiment [2] (on the day of treatment, intranasal 500 μg) was “increased”. Further, in experiment [2] (single intranasal dose of 500 μg, human, 3rd day following administration), the “diminution of the level of testosterone” value was found to be 50%. In addition, in experiment [3] (12 cycles, sheet 5, scale 13 to 127%), the “level of progesterone reduced as compared to the controls” value was 46%. The “level of progesterone as % of control values (pretreatment cycles = 100%)” value in experiment [3] (cycles of post-treatment, 12 cycles) was 99%; in experiment [3] (cycles of treatment, 12 cycles) it was 46%. Moreover, the figures for the “reduction of seric levels of progesterone compared to the controls” value in experiment [3] (first cycle of treatment) and in experiment [3] (second cycle of treatment) were 13% and 34%, respectively. In addition, in experiment [3] (sheet 4), the “level of seric progesterone in the 2 cycles of treatment” value is on record as “accelerated diminution”.
